From US8946243B2, “Compounds and methods for the treatment of viral infection” (The United States of America, as represented by the …, priority 2008, dated 2015)
Read-outs that look alike come from different tables or passages of the source.

What was measured:
HIV-1(IIIB) = assay: Anti-HIV activity in CEM cell cultures: prevention of giant cell (syncytium) formation, HIV-1(IIIB); assay type: cell-based; conditions: concentration preventing syncytium formation by 50%, 4-5 days
Protocol: (§1) Human T-lymphocyte MT-4 or CEM cells were obtained from the American Type Culture Collection (Manassas, Va.) and cultivated in RPMI 1640 medium supplemented with 10% fetal bovine serum 2 mM L-glutamine and 0.075 M NaHCO3.
(§2) HIV-1(IIIB) was provided by Dr. R. C. Gallo and Dr. M. Popovic (at that time at the NCI, National Institutes of Health, Bethesda). A closely related HIV-1 variant (LAI.04) was obtained from the NIH AIDS Reagent Program.
(§3) Briefly, CEM cells (4.5×10^5 cells per ml) were suspended in fresh culture medium and infected with HIV-1 at 100 CCID50 (cell culture infective dose-50) per ml of cell suspension. Then 100 μl of the infected cell suspension were transferred to microplate wells, mixed with 100 μl of the appropriate dilutions of the test compounds, and further incubated at 37° C. After 4-5 days, giant cell formation was recorded microscopically in the CEM cell cultures. […] MT4 cells (1×10^4 cells per ml) were suspended in fresh culture medium and infected with 10 uL of HIV-1LAI.04 viral stock at 260 CCID50 (cell culture infective dose-50) per ml of cell suspension. Then infected cell suspensions were transferred to microplate wells, mixed with 1 mL of the appropriate dilutions of the test compounds, and further incubated at 37° C. After 7 days, p24 production was measured in the MT4 cell cultures supernatant.

[1] = Cytostatic activity in CEM cell cultures; assay type: cell-based; conditions: human, CEM T-lymphocyte cells
Protocol: as §1

HIV-1 X4 LAI.04 = assay: HIV-1 replication in ex vivo human tonsillar tissue culture: p24gag in culture medium; assay type: cell-based; conditions: for EC50 / EC90: Human immunodeficiency virus 1; for EC50 / EC90 / EC75: ex vivo human tonsillar tissue, X4 LAI.04, p24gag
Protocol: Tonsillar tissues from routine surgery were obtained from the Children's National Medical Center, Washington D.C. Tissues were dissected into 2-mm^3 blocks and placed onto collagen sponge gels at the air-liquid interface. Tissue blocks were cultured in RPMI 1640 medium containing 15% heat-inactivated fetal calf serum, nonessential amino acids (1 mM), sodium pyruvate (1 mM), amphotericin B (2.5 μg/mL) and gentamicin (50 μg/mL). The culture medium was changed every 3 days and prodrugs were replenished. Blocks of human lymphoid tonsillar tissues were inoculated ex vivo with X4LAI.04 and treated with increasing concentration of each prodrug (0,1; 0.5; 1; 5 and 10 μM). HIV-1 replication was monitored by measuring p24gag accumulated in culture media over 3 day periods. For each donor, HIV-1 replication in 9 treated blocks was compared with that in 9 untreated blocks from the same donor.

HIV-2(ROD) = assay: Anti-HIV activity in CEM cell cultures: prevention of giant cell (syncytium) formation, HIV-2(ROD); assay type: cell-based; conditions: Human immunodeficiency virus 2, CCRF-CEM, read-out: EC50 HIV-2(ROD)
HIV-1 LAI.04 = assay: Anti-HIV activity in MT4 cell cultures: p24 production; assay type: cell-based; conditions: for inhibition of HIV-1 (in words): MT-4 cell line, concentration of 5 μM
Protocol: as §1, §2
as §3, with “After 7 days, p24 production was measured in the MT4 cell cultures supernatant.” left out

HIV-1 RT = HIV-1 RT (Human immunodeficiency virus type 1 group M subtype B, UniProt P03366); assay: Inhibition of HIV-1 RT; assay type: biochemical
[2] = Human immunodeficiency virus 1, IIIB, CCRF-CEM, read-out: EC50 HIV-1(IIIB), CEM cell cultures
[3] = Human immunodeficiency virus 1, MT4
[4] = CEM cell cultures, 50% effective concentration
[5] = MT4 cell cultures, HIV-1 LAI.04, 50% suppression of p24 production, read-out: EC50

Structure (SMILES)	EC50 (HIV-1(IIIB); [2])	CC50 [1]	EC50 (HIV-1 X4 LAI.04)	EC90 (HIV-1 X4 LAI.04)	EC75 (HIV-1 X4 LAI.04)	EC50 (HIV-2(ROD))	EC50 (HIV-1 LAI.04; [3])	also measured
COC(=O)[C@H](C)NP(=O)(OCCOCn1cnc2c(=O)[nH]c(N)nc21)Oc1cccc2ccccc12 (stereo partly drawn) [Cf 2649, acyclovir-[1-naphthyl(methoxy-L-alaninyl)]phosphate]	9.7 µM	57 µM	< 0.1 µM	0.1 µM	<0.1 µM	9.3 µM	3 µM	suppression of HIV-1 replication, time course (FIG. 1, in words) (HIV-1 X4 LAI.04; human tonsillar tissue, 27 blocks, LAI.04, drug replenished every three days, p24 ELISA): efficient suppression of HIV replication; inhibition at 5 µM (HIV-1 LAI.04; Human immunodeficiency virus 1, MT4, read-out: inhibition of replication of HIV-1): 99%; dose-dependency of HIV suppression (FIG. 2, in words) (HIV-1 LAI.04; MT4 cells, LAI.04, day 3 post-infection, p24 ELISA): suppression of HIV replication by the drug in dose-dependent manner
C[C@H](NP(=O)(OCCOCn1cnc2c(=O)[nH]c(N)nc21)Oc1cccc2ccccc12)C(=O)OCc1ccccc1 (stereo partly drawn) [Cf 2574, acyclovir-[1-naphthyl(benzoxy-L-alaninyl)]phosphate]	17.5 µM	17 µM	< 0.1 µM	0.9 µM	0.62 µM	7.3 µM	0.8 µM	–
Nc1nc2c(ncn2COCCO)c(=O)[nH]1 [ACV, Acyclovir, reference compound]	–	> 250 µM	–	–	–	–	–	EC50 (HIV-2(ROD); [4]): > 250 µM; inhibition of HIV-1 (in words) (HIV-1 LAI.04): inefficient; effect on replication of HIV-1 (in words) (HIV-1 LAI.04; MT-4 cells, at low concentrations): does not affect HIV-1 replication at all
Nc1nc2c(ncn2COCCOP(=O)(N[C@@H](Cc2ccccc2)C(=O)OCc2ccccc2)Oc2ccccc2)c(=O)[nH]1 (stereo partly drawn) [Cf 2650, acyclovir-[1-phenyl-(benzoxy-L-phenylalaninyl)]phosphate]	24 µM	42 µM	< 0.1 µM	3 µM	1.5 µM	21 µM	16 µM	–
C[C@H](NP(=O)(OCCOCn1cnc2c(=O)[nH]c(N)nc21)Oc1ccccc1)C(=O)OCc1ccccc1 (stereo partly drawn) [Cf 2648, acyclovir-[1-phenyl-(benzoxy-L-alaninyl)]phosphate]	3.2 µM	33 µM	< 0.1 µM	0.55 µM	<0.1 µM	8.8 µM	8 µM	–
Nc1nc2c(ncn2COCCOP(=O)(O)O)c(=O)[nH]1 [ACV monophosphate, reference compound]	–	–	–	–	–	–	–	EC50 (HIV-1 LAI.04; [5]): 100 µM; inhibition of HIV-1 (in words) (HIV-1 LAI.04): inefficient
CCCOC(=O)[C@H](C)NP(=O)(OCCOCn1cnc2c(=O)[nH]c(N)nc21)Oc1cccc2ccccc12 (stereo partly drawn) [Cf 2629, acyclovir-[1-naphthyl(n-propoxy-L-alaninyl)]phosphate]	3.2 µM	22 µM	< 0.1 µM	1.5 µM	0.4 µM	7.4 µM	10 µM	EC50 (HIV-1(IIIB); read-out: EC50 HIV-1(IIIB), CEM cell cultures): 3.4 µM
Nc1nc2c(ncn2COCCOP(=O)(O)OP(=O)(O)OP(=O)(O)O)c(=O)[nH]1 [ACV triphosphate, reference compound]	–	–	–	–	–	–	–	inhibition of HIV-1 RT (in words) (HIV-1 RT): potent inhibitor; EC50 (HIV-1 LAI.04; [5]): 50 µM
COC(=O)[C@H](C)NP(=O)(OCCOCn1cnc2c(=O)[nH]c(N)nc21)Oc1ccccc1 (stereo partly drawn) [Cf 1811, acyclovir-[1-phenyl-(methoxy-L-alaninyl)]phosphate]	16 µM	67 µM	< 0.1 µM	0.5 µM	0.1 µM	26 µM	15 µM	–
Nc1nc(O)c2ncn(COC(CO)CO)c2n1 [GCV, Ganciclovir, reference compound]	–	> 250 µM	–	–	–	–	–	EC50 (HIV-1(IIIB); Human immunodeficiency virus 1, IIIB, CCRF-CEM, CEM cell cultures, read-out: EC50 HIV-1(IIIB)): > 250 µM; EC50 (HIV-2(ROD); [4]): > 250 µM
